Source: US20240270762A1, “PENICILLIN-BINDING PROTEIN INHIBITORS” (priority 2021, published 2024)
Values after ≈ are worked out from the molar mass of the structure shown.

How the values were obtained:
Assay in all cases: microbe, parasite or virus in culture
Type in all cases: cell-based
[1] = system: E. coli ATCC 25922; conditions: Escherichia coli, ATCC25922, read-out: MIC E. coli 25922
[2] = system: K. pneumoniae SI-117; conditions: Klebsiella pneumoniae, SI117, read-out: MIC K. pneumoniae SI-117
[3] = system: P. aeruginosa ATCC 35151; conditions: Pseudomonas aeruginosa, ATCC35151, read-out: MIC P. aeruginosa ATCC 35151
[4] = system: E. coli 901C; conditions: Escherichia coli, read-out: MIC E. coli 901C
[5] = system: K. pneumoniae UMM; conditions: Klebsiella pneumoniae, read-out: MIC K. pneumoniae UMM
[6] = system: A. baumannii CDC-0083; conditions: Acinetobacter baumannii, CDC0083, read-out: MIC, A. baumannii CDC-0083

Row | Compound | MIC [1] [µg/mL] | MIC [2] [µg/mL] | MIC [3] [µg/mL] | MIC [4] [µg/mL] | MIC [5] [µg/mL] | MIC [6] [µg/mL]
1 | O=C(O)c1c(F)ccc2c1OB(O)[C@@H](NC(=O)[C@H](NC(=O)N1CCN(Cc3ccc(O)c(O)c3Cl)C(=O)C1=O)c1ccc(P(=O)(O)O)cc1)C2 (single isomer, unassigned) [Example 160] | 2 to 4 (≈ 2.72 to 5.44 µM) | 8 to 16 (≈ 10.9 to 21.8 µM) | < 1 | < 1 | 2 to 4 (≈ 2.72 to 5.44 µM) | < 1
2 | O=C(O)c1cccc2c1OB(O)[C@@H](NC(=O)[C@H](NC(=O)N1CCN(Cc3cc(F)c(O)c(O)c3Cl)C(=O)C1=O)c1ccc(P(=O)(O)O)cc1)C2 [Example 504, (R)-3-((R)-2-(4-(2-chloro-5-fluoro-3,4-dihydroxybenzyl)-2,3-dioxopiperazine-1-carboxamido)-2-(4-phosphonophenyl)acetamido)-2-hydroxy-3,4-dihydro-2H-benzo[e][1,2]oxaborinine-8-carboxylic acid] | < 1 | 2 to 4 (≈ 2.72 to 5.44 µM) | < 1 | < 1 | 2 to 4 (≈ 2.72 to 5.44 µM) | –
3 | O=C(O)c1c(F)ccc2c1OB(O)[C@@H](NC(=O)C(NC(=O)N1CCN(S(=O)(=O)c3ccc(O)c(O)c3Cl)C1=O)c1ccc(P(=O)(O)O)cc1)C2 (stereo partly drawn) [Example 505, (3R)-3-(2-(3-((2-chloro-3,4-dihydroxyphenyl)sulfonyl)-2-oxoimidazolidine-1-carboxamido)-2-(4-phosphonophenyl)acetamido)-7-fluoro-2-hydroxy-3,4-dihydro-2H-benzo[e][1,2]oxaborinine-8-carboxylic acid] | < 1 | < 1 | < 1 | < 1 | < 1 | –
4 | O=C(O)c1c(F)ccc2c1OB(O)[C@@H](NC(=O)[C@H](NC(=O)N1CCN(S(=O)(=O)c3ccc(O)c(O)c3Cl)C1=O)c1ccc(P(=O)(O)O)cc1)C2 [Example 506, (R)-3-((R)-2-(3-((2-chloro-3,4-dihydroxyphenyl)sulfonyl)-2-oxoimidazolidine-1-carboxamido)-2-(4-phosphonophenyl)acetamido)-7-fluoro-2-hydroxy-3,4-dihydro-2H-benzo[e][1,2]oxaborinine-8-carboxylic acid] | < 1 | < 1 | < 1 | < 1 | < 1 | –
5 | O=C(O)c1cccc2c1OB(O)[C@@H](NC(=O)[C@H](NC(=O)N1CCN(S(=O)(=O)c3ccc(O)c(O)c3Cl)C1=O)c1ccc(P(=O)(O)O)cc1)C2 [Example 509, (R)-3-((R)-2-(3-((2-chloro-3,4-dihydroxyphenyl)sulfonyl)-2-oxoimidazolidine-1-carboxamido)-2-(4-phosphonophenyl)acetamido)-2-hydroxy-3,4-dihydro-2H-benzo[e][1,2]oxaborinine-8-carboxylic acid] | < 1 | < 1 | < 1 | < 1 | < 1 | –
